Where “and” joins values, the source holds several entries; their conditions need not be identical. Equal values may be shown once. Read-outs that look alike come from different tables or passages of the source.
Tests used:
[1] = In vivo pharmacokinetic studies in rats; set-up: species or system SD rats; details: rats; for AUC(0-t): read-out: AUClast
Method: This example describes pharmacokinetic (PK) studies of ARI-164, ARI-165, ARI-186, ARI-224, and ARI-226 in mice and rats. In the present studies, the test compounds were given to groups of mice and/or rats (N=3 in each group), intravenously (IV) at 2 mg/kg or orally (PO) at 10, 30, or 40 mg/kg. ARI-186, ARI-224 and ARI-226 were given orally to rats QD for 5 days at 10 mg/kg to assess whether decreased susceptibility to CYP1A1/1A2 metabolism would lead to increased accumulation. IV doses were formulated in DMSO, while PO doses were formulated in a 50/50 mixture of PEG400 and Tween 80 (single dose mouse and rat studies for ARI-164, ARI-165, ARI-186, ARI-224, ARI-226) or PEG400/Kolliphor HS15/Oleic Acid 45/45/10 (ARI-164 repeat dose rat study). Blood samples were collected at pre-dose and over a period of 24 hours post-dose. Plasma concentrations of the test compounds were determined by HPLC.

[2] = CYP profiling: turnover in human liver microsomes, 30 min, no inhibitor; format: in vitro ADME; set-up: % Compound Metabolized at 30 min, No Inhibitor: concentration or dose not given beside the values; details: HLMs
Method: (§1) In order to investigate the contributions of CYP1A2 and CYP3A4 to the metabolism of the compounds of the present disclosure, human liver microsomes were incubated with the test compounds for 30 minutes in the presence of selective chemical inhibitors furafylline (1A2) and ketoconazole (3A4).

CYP3A4 = biological target: T1, CYP3A4 (Homo sapiens, UniProt P08684); assay: CYP profiling: human liver microsomes with CYP3A4 inhibitor ketoconazole; format: in vitro ADME; set-up: % Compound Metabolized at 30 min, CYP3A4 Inhibitor: concentration or dose not given beside the values; details: HLMs; for % Inhibition Relative to Negative Control, 3A4: 30 min
T1 construct: from tissue; host or cells: human liver microsomes
Method: as §1

rat hepatocytes = assay: Hepatocyte intrinsic clearance assay (metabolic stability), rat hepatocytes; format: in vitro ADME; details: for EH (hepatic extraction ratio): Rat Hepatocytes, well stirred liver model, fu=1
How it was run: (§2)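 Cryopreserved pooled hepatocytes (1×10^6 cells/mL final) incubated with 1 μM compound at 37 °C, 5% CO2; samples at 0–120 min quenched in acetonitrile, analysed by LC-MS in duplicate. t1/2 and CLint from ln(% remaining) vs time slope; CLH via well-stirred liver model (fu=1) and EH derived from it.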

[3] = as above; format: in vitro ADME; details: rat, cryopreserved hepatocytes, Rat Hepatocytes, 1 μM test compound
How it was run: as §2

human hepatocytes = assay: Hepatocyte intrinsic clearance assay (metabolic stability), human hepatocytes; format: in vitro ADME; details: Human Hepatocytes; well stirred liver model, fu=1
How it was run: as §2

[4] = as above; format: in vitro ADME; details: male, human, cryopreserved pooled hepatocytes, Human Hepatocytes, 1 μM test compound
How it was run: as §2

[5] = SD, rat, plasma, po, 10 mg/kg, PO 10 mg/kg repeat dose, Day 1, Mean of 3 animals
[6] = Sprague-Dawley (SD), rat, plasma, po, 10 mg/kg, PO 10 mg/kg repeat dose, Day 1, individual animals (ID 4, 5, 6)
[7] = Sprague-Dawley (SD), rat, plasma, po, 10 mg/kg, PO 10 mg/kg repeat dose, Day 5, Mean of 3 animals
[8] = PO 10 mg/kg repeat dose, Day 1, individual animals (ID 4, 5, 6), 10 mg/kg
[9] = PO 10 mg/kg repeat dose, Day 5, individual animals (ID 4, 5, 6), 10 mg/kg

T1 sequence (P08684 whole entry): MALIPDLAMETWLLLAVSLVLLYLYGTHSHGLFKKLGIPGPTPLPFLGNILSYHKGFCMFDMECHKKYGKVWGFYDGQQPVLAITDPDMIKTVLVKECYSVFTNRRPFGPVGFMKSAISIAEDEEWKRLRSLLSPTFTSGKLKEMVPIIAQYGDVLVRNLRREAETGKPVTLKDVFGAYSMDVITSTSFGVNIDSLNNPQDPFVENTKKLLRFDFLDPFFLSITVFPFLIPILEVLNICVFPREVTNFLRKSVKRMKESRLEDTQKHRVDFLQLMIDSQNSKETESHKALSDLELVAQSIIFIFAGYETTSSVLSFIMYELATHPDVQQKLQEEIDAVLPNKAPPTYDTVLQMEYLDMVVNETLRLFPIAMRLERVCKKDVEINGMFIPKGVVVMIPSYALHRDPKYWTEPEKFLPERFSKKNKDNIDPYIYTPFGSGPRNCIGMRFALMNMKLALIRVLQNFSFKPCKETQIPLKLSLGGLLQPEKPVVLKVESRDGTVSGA

Structure (SMILES): CC(C)(N)c1csc(C(=O)c2c[nH]c3cc(F)ccc23)n1 [ARI-226, (4-(2-aminopropan-2-yl)thiazol-2-yl)(6-fluoro-1H-indol-3-yl)methanone]
- AUC(0-inf) [1, 5]: 832 ng·h/mL
- Cmax at 1 day [1, 5]: 112 ng/mL
- MRT inf at 1 day [1, 5]: 5.81 h
- half-life at 1 day [1, 5]: 2.28 h
- AUC(0-t) [1, 5]: 831 ng·h/mL
- Tmax at 1 day ([1]; SD, rat, plasma, po, 10 mg/kg, PO 10 mg/kg repeat dose, Day 1, Mean of 3 animals, read-out: Tmax): 4 h
- Tmax at 5 days ([1]; SD, rat, plasma, po, 10 mg/kg, PO 10 mg/kg repeat dose, Day 5, individual animals (ID 4, 5, 6)): 1 h
- MRT inf [1, 6]: 5.23 h
- half-life [1, 6]: 2.55 h
- Tmax ([1]; Sprague-Dawley (SD), rat, plasma, po, 10 mg/kg, PO 10 mg/kg repeat dose, Day 1, individual animals (ID 4, 5, 6), read-out: Tmax): 4 h
- AUC(0-inf) [1, 7]: 38.7 ng·h/mL
- MRT inf [1, 7]: 3.01 h
- half-life [1, 7]: 1.64 h
- AUC(0-t) [1, 7]: 35.7 ng·h/mL
- Cmax ([1]; Sprague-Dawley (SD), rat, plasma, po, 10 mg/kg, PO 10 mg/kg repeat dose, Day 5, Mean of 3 animals, read-out: Cmax): 9.78 ng/mL
- Tmax ([1]; Sprague-Dawley (SD), rat, plasma, po, 10 mg/kg, PO 10 mg/kg repeat dose, Day 5, Mean of 3 animals, read-out: Tmax): 1.67 h
- half-life ([1]; Sprague-Dawley (SD), rat, plasma, po, 10 mg/kg, PO 10 mg/kg repeat dose, Day 5, individual animals (ID 4, 5, 6)): 1.05 h
- behaviour of exposure after 5 days of repeat dosing (in words) ([1]; 10 mg/kg PO QD for 5 days): increased elimination
- MRTIast ([1]; PO 10 mg/kg repeat dose, Day 1, Mean of 3 animals): 5.78 h
- AUCinf [1, 8]: 1280 ng·h/mL and 253 ng·h/mL and 963 ng·h/mL
- AUClast [1, 8]: 1280 ng·h/mL and 253 ng·h/mL and 963 ng·h/mL
- Cmax [1, 8]: 188 ng/mL and 28.4 ng/mL and 119 ng/mL
- MRTIast [1, 8]: 5.18 h and 5.96 h and 6.21 h
- MRTinf [1, 8]: 5.99 h and 6.22 h
- T1/2 [1, 8]: 2.39 h and 1.89 h
- MRTIast ([1]; PO 10 mg/kg repeat dose, Day 5, Mean of 3 animals): 2.49 h
- AUCinf [1, 9]: 14.2 ng·h/mL and 54.7 ng·h/mL and 47.3 ng·h/mL
- AUClast [1, 9]: 13.0 ng·h/mL and 50.9 ng·h/mL and 43.2 ng·h/mL
- Cmax [1, 9]: 5.33 ng/mL and 13.2 ng/mL and 10.8 ng/mL
- MRTIast [1, 9]: 1.56 h and 2.76 h and 3.15 h
- MRTinf [1, 9]: 1.89 h and 3.31 h and 3.82 h
- T1/2 [1, 9]: 1.87 h and 2.01 h
- Tmax [1, 9]: 2 h
- % Compound Metabolized at 30 min, No Inhibitor [2]: 6%
- metabolic turnover (in words) [2]: low turnover
- % Compound Metabolized at 30 min, CYP3A4 Inhibitor (CYP3A4): 11%
- % Inhibition Relative to Negative Control, 3A4 (CYP3A4): None
- EH (hepatic extraction ratio) (rat hepatocytes): 30.4%
- CLint lower than that of ARI-164 (fold) (rat hepatocytes; rat hepatocytes): slightly lower
- half-life at 1 μM [3]: 1.8 h
- hepatocyte CLint at 1 μM [3]: 6.54 µL/min/1e6 cells
- EH (hepatic extraction ratio) (human hepatocytes): 15.8%
- half-life at 1 μM [4]: 3 h
- hepatocyte CLint at 1 μM [4]: 3.85 µL/min/1e6 cells

Structure (SMILES): CC[C@@H](N)c1csc(C(=O)c2c[nH]c3ccc(F)cc23)n1 [ARI-219]
- % Compound Metabolized at 30 min, No Inhibitor [2]: 13%
- % Compound Metabolized at 30 min, CYP3A4 Inhibitor (CYP3A4): 23%
- % Inhibition Relative to Negative Control, 3A4 (CYP3A4): None
- EH (hepatic extraction ratio) (rat hepatocytes): 58.9%
- half-life at 1 μM [3]: 0.5 h
- hepatocyte CLint at 1 μM [3]: 21.4 µL/min/1e6 cells
- EH (hepatic extraction ratio) (human hepatocytes): 11.5%
- half-life at 1 μM [4]: 5.3 h
- hepatocyte CLint at 1 μM [4]: 2.17 µL/min/1e6 cells

Structure (SMILES): N[C@H](c1csc(C(=O)c2c[nH]c3cc(F)ccc23)n1)C(F)(F)F [ARI-223]
- % Compound Metabolized at 30 min, No Inhibitor [2]: 79%
- metabolic turnover (in words) [2]: high turnover
- % Compound Metabolized at 30 min, CYP3A4 Inhibitor (CYP3A4): 42%
- % Inhibition Relative to Negative Control, 3A4 (CYP3A4): 47%
- EH (hepatic extraction ratio) (rat hepatocytes): 63.1%
- half-life at 1 μM [3]: 0.5 h
- hepatocyte CLint at 1 μM [3]: 25.6 µL/min/1e6 cells
- EH (hepatic extraction ratio) (human hepatocytes): 23.7%
- half-life at 1 μM [4]: 1 h
- hepatocyte CLint at 1 μM [4]: 11.6 µL/min/1e6 cells

Structure (SMILES): O=C(c1nc(C2(O)CC2)cs1)c1c[nH]c2cc(F)ccc12 [ARI-221, (6-fluoro-1H-indol-3-yl)(4-(1-hydroxycyclopropyl)thiazol-2-yl)methanone]
- % Compound Metabolized at 30 min, No Inhibitor [2]: 95%
- % Compound Metabolized at 30 min, CYP3A4 Inhibitor (CYP3A4): 82%
- % Inhibition Relative to Negative Control, 3A4 (CYP3A4): 14%
- EH (hepatic extraction ratio) (rat hepatocytes): 27.1%
- half-life at 1 μM [3]: 2.1 h
- hepatocyte CLint at 1 μM [3]: 5.55 µL/min/1e6 cells
- EH (hepatic extraction ratio) (human hepatocytes): 27.3%
- half-life at 1 μM [4]: 0.5 h
- hepatocyte CLint at 1 μM [4]: 25.3 µL/min/1e6 cells

Structure (SMILES): NC1(c2csc(C(=O)c3c[nH]c4cc(F)ccc34)n2)CC1 [ARI-225, (4-(1-aminocyclopropyl)thiazol-2-yl)(6-fluoro-1H-indol-3-yl)methanone]
- % Compound Metabolized at 30 min, No Inhibitor [2]: 39%
- metabolic turnover (in words) [2]: high turnover
- % Compound Metabolized at 30 min, CYP3A4 Inhibitor (CYP3A4): 29%
- % Inhibition Relative to Negative Control, 3A4 (CYP3A4): 26%
- EH (hepatic extraction ratio) (rat hepatocytes): 60.8%
- half-life at 1 μM [3]: 0.5 h
- hepatocyte CLint at 1 μM [3]: 23.2 µL/min/1e6 cells
- EH (hepatic extraction ratio) (human hepatocytes): 17.8%
- half-life at 1 μM [4]: 2.3 h
- hepatocyte CLint at 1 μM [4]: 4.96 µL/min/1e6 cells

Structure (SMILES): CC[C@H](N)c1csc(C(=O)c2c[nH]c3ccc(F)cc23)n1 [ARI-218]
- % Compound Metabolized at 30 min, No Inhibitor [2]: 16%
- % Compound Metabolized at 30 min, CYP3A4 Inhibitor (CYP3A4): 0%
- % Inhibition Relative to Negative Control, 3A4 (CYP3A4): 100%
- EH (hepatic extraction ratio) (rat hepatocytes): 42.5%
- half-life at 1 μM [3]: 1 h
- hepatocyte CLint at 1 μM [3]: 11.1 µL/min/1e6 cells
- EH (hepatic extraction ratio) (human hepatocytes): 22.2%
- half-life at 1 μM [4]: 1.3 h
- hepatocyte CLint at 1 μM [4]: 9.16 µL/min/1e6 cells

Structure (SMILES): O=C(c1nc([C@H](O)C(F)(F)F)cs1)c1c[nH]c2cc(F)ccc12 [ARI-212]
- % Compound Metabolized at 30 min, No Inhibitor [2]: 43%
- % Compound Metabolized at 30 min, CYP3A4 Inhibitor (CYP3A4): 24%
- % Inhibition Relative to Negative Control, 3A4 (CYP3A4): 44%
- EH (hepatic extraction ratio) (rat hepatocytes): 20.5%
- half-life at 1 μM [3]: 3 h
- hepatocyte CLint at 1 μM [3]: 3.85 µL/min/1e6 cells
- EH (hepatic extraction ratio) (human hepatocytes): 28.9%
- half-life at 1 μM [4]: 0.3 h
- hepatocyte CLint at 1 μM [4]: 44.1 µL/min/1e6 cells

Structure (SMILES): N[C@H](c1csc(C(=O)c2c[nH]c3ccccc23)n1)C(F)(F)F [ARI-228]
- % Compound Metabolized at 30 min, No Inhibitor [2]: 89%
- metabolic turnover (in words) [2]: high turnover
- % Compound Metabolized at 30 min, CYP3A4 Inhibitor (CYP3A4): 75%
- % Inhibition Relative to Negative Control, 3A4 (CYP3A4): 16%
- EH (hepatic extraction ratio) (rat hepatocytes): 88.2%
- half-life at 1 μM [3]: 0.1 h
- hepatocyte CLint at 1 μM [3]: 112 µL/min/1e6 cells
- EH (hepatic extraction ratio) (human hepatocytes): 27.6%
- half-life at 1 μM [4]: 0.2 h
- hepatocyte CLint at 1 μM [4]: 64.4 µL/min/1e6 cells

Structure (SMILES): CC[C@@H](N)c1csc(C(=O)c2c[nH]c3cc(F)ccc23)n1 [ARI-187, (R)-(4-(1-aminopropyl)thiazol-2-yl)(6-fluoro-1H-indol-3-yl)methanone]
- % Compound Metabolized at 30 min, No Inhibitor [2]: 4%
- % Compound Metabolized at 30 min, CYP3A4 Inhibitor (CYP3A4): 3%
- % Inhibition Relative to Negative Control, 3A4 (CYP3A4): 25%
- EH (hepatic extraction ratio) (rat hepatocytes): 24.8%
- half-life at 1 μM [3]: 2.3 h
- hepatocyte CLint at 1 μM [3]: 4.93 µL/min/1e6 cells
- EH (hepatic extraction ratio) (human hepatocytes): 4.4%
- half-life at 1 μM [4]: 18.6 h
- hepatocyte CLint at 1 μM [4]: 0.621 µL/min/1e6 cells

Structure (SMILES): O=C(c1nc([C@@H](O)C(F)(F)F)cs1)c1c[nH]c2cc(F)ccc12 [ARI-211]
- % Compound Metabolized at 30 min, No Inhibitor [2]: 50%
- % Compound Metabolized at 30 min, CYP3A4 Inhibitor (CYP3A4): 59%
- % Inhibition Relative to Negative Control, 3A4 (CYP3A4): None
- EH (hepatic extraction ratio) (rat hepatocytes): 17.7%
- half-life at 1 μM [3]: 3.6 h
- hepatocyte CLint at 1 μM [3]: 3.21 µL/min/1e6 cells
- EH (hepatic extraction ratio) (human hepatocytes): 23.6%
- half-life at 1 μM [4]: 1 h
- hepatocyte CLint at 1 μM [4]: 11.3 µL/min/1e6 cells
